Experimental data published in patent US9006487B2, “Amine-containing lipids and uses thereof” (Massachusetts Institute of Technology, priority 2005, dated 2015).
Values joined by “and” are separate entries in the source; they are usually repeats but may differ in a detail not shown here. Equal values may be shown once.

Tested on: cos-7 cells
Test: DNA transfection: luciferase expression relative to Lipofectamine 2000
Assay type: cell-based
Conditions: 300 ng Luciferase DNA per well
Method: 14,000 cos-7 cells (ATCC, Manassas, Va.) were seeded into each well of a solid white or clear 96 well plate (Corning-Costar, Kennebunk, Me.) and allowed to attached overnight in growth medium, composed of: 500 ml phenol red minus DMEM, 50 ml heat inactivated FBS, 5 ml penicillin/streptomycin (Invitrogen, Carlsbad, Calif.).
A small liquot of lipid was tranferred to an Eppendorf tube. Based on the mass of the lipid in the tube, sterile 25 mM sodium acetate buffer was added to each tube to yield a concentration of 60 mg/ml. The resulting mixture was vortexed for approximately 20 minutes until the lipid was fully dissolved. DNA was prepared based on 300 ng DNA per well of a 96-well plate. 291 μg of Lc DNA was dissolved in 9210 μl of 25 mM sodium acetate buffer. Aliquots of 30 μl of DNA solution were added to each well expect for the last column which was reserved for the Lipo2000 standard. For the last column of the plate, 61 μg of DNA was added to 1940 μl Optimem. 150 μl of media/Optimem was added to each well of plates. 50 μl of lipid solution was aliquoted into wells of robot plate. The following amounts were aliquoted to obtain the correct ratios of DNA to lipid:
In quadruplicate, 30 μl of lipid was aliquoted onto DNA in four rows for each ratio. For the Lipo2000 control (2.5 w/w ratio to DNA), 152.5 μg of Lipo sample was aliquoted into 1847.5 μl of Optimem. 30 μl of this solution was aliquoted onto DNA in the Optimem in the last columns of each plate. The plates were incubated for 15-20 minutes, and then 36.5 μl of lipid+DNA complexes was transferred into 150 μl of media/Optimem, then add to cells. The media was aspirated off the cells, and 105 μl of the lipid/DNA/media/Optimem solution was added to the cells. The luciferase assay was performed after 48 hours.
Luminescence was analyzed using bright-glo assay kits (Promega). Briefly, 100 μl of bright-glo solution was added to each well of the microtiter plate containing media and cells. Luminescence was measured using a Mithras Luminometer (Berthold, Oak Ridge, Tenn.). In some cases, a neutral density filter (Chroma, Brattleboro, Vt.) was used to prevent saturation of the luminometer. A standard curve for Luciferase was generated by titration of Luciferase enzyme (Promega) into growth media in white microtiter plates. Luciferase in ng per well are calculated for each of the lipids at 2.5 w/w, 5 w/w, 10 w/w, 15 w/w, 20 w/w, and 25 w/w lipid to DNA based on the standard curve.
The table below summarizes the data as a % of the luciferase activity obtained from the use of Lipofectamine 2000. The table indicates the best lipids for transfection.

[1] = lipid/DNA 2.5 w/w, luciferase assay after 48 hours
[2] = lipid/DNA 5 w/w, luciferase assay after 48 hours
[3] = lipid/DNA 10 w/w, luciferase assay after 48 hours
[4] = lipid/DNA 15 w/w, luciferase assay after 48 hours
[5] = lipid/DNA 20 w/w, luciferase assay after 48 hours
[6] = lipid/DNA 25 w/w, luciferase assay after 48 hours

SMILES | Luciferase expression as a percentage of that achieved using Lipofectamine 2000 (lipid/DNA 2.5 w/w, 72 hours incubation before bright-glo) | Luciferase expression as a percentage of that achieved using Lipofectamine 2000 [1] | Luciferase expression as a percentage of that achieved using Lipofectamine 2000 (lipid/DNA 5 w/w, 72 hours incubation before bright-glo) | Luciferase expression as a percentage of that achieved using Lipofectamine 2000 [2] | Luciferase expression as a percentage of that achieved using Lipofectamine 2000 (lipid/DNA 10 w/w, 72 hours incubation before bright-glo) | Luciferase expression as a percentage of that achieved using Lipofectamine 2000 [3] | Luciferase expression as a percentage of that achieved using Lipofectamine 2000 (lipid/DNA 15 w/w, 72 hours incubation before bright-glo) | Luciferase expression as a percentage of that achieved using Lipofectamine 2000 [4] | Luciferase expression as a percentage of that achieved using Lipofectamine 2000 (lipid/DNA 20 w/w, 72 hours incubation before bright-glo) | Luciferase expression as a percentage of that achieved using Lipofectamine 2000 [5] | Luciferase expression as a percentage of that achieved using Lipofectamine 2000 (lipid/DNA 25 w/w, 72 hours incubation before bright-glo) | Luciferase expression as a percentage of that achieved using Lipofectamine 2000 [6]
CCCCCCCCCCCCCCCOC(=O)CCN(CC)CCCN(CC)CCC(=O)OCCCCCCCCCCCCCCC [LG64] | 0.3% | 0.0% and 0.2% | 0.3% | 0.0% and 0.1% | 1.8% | 0.0% and 0.1% | 1.8% | 0.0% and 0.1% | 1.2% | 0.0% and 0.1% | 1.6% | 0.0% and 0.2%
CCCCCCCCCCCCCCCOC(=O)CC[N+](C)(CCC(=O)OCCCCCCCCCCCCCCC)CCC1OCCO1.[I-] [QG6] | – | 0.0% | – | 0.0% | – | 0.0% | – | 0.0% | – | 0.0% | – | 0.0%
CCCCCCCCCCCCCCCOC(=O)CCN(CCC(=O)OCCCCCCCCCCCCCCC)CC(O)CO (centres unmarked) [LG24] | – | 2.0% | – | 3.3% | – | 4.8% | – | 11.2% | – | 16.4% | – | 32.5%
CCCCCCCCCCCCCCOC(=O)CCN(CCOC)CCC(=O)OCCCCCCCCCCCCCC [LF10] | – | 0.1% | – | 0.1% | – | 0.0% | – | 0.0% | – | 0.1% | – | 0.1%
CCCCCCCCCCCCCCCOC(=O)CCN(CCC(=O)OCCCCCCCCCCCCCCC)CC(C)(C)CO [LG33] | – | 0.1% | – | 0.1% | – | 0.1% | – | 0.1% | – | 0.1% | – | 0.1%
CCCCCCCCCCOC(=O)CCN(CCC(=O)OCCCCCCCCCC)C1CCC(O)CC1 (centres unmarked) [LB38] | – | 0.7% | – | 0.8% | – | 0.7% | – | 0.8% | – | 0.7% | – | 0.8%
CCCCCCCCCCCCOC(=O)CCN(C)CCCN(C)CCC(=O)OCCCCCCCCCCCC [LD63] | – | 0.7% | – | 0.8% | – | 0.3% | – | 0.3% | – | 0.4% | – | 0.6%
CCCCCCCCCCCCCCCOC(=O)CC[N+](C)(CCC(=O)OCCCCCCCCCCCCCCC)CC1COC(C)(C)O1.[I-] (centres unmarked) [QG7] | – | 0.4% | – | 0.3% | – | 0.5% | – | 0.3% | – | 0.4% | – | 0.3%
CCCCCCCCCCCCCCCOC(=O)CCN(CCOCC)CCC(=O)OCCCCCCCCCCCCCCC [LG11] | – | 0.0% | – | 0.0% | – | 0.0% | – | 0.0% | – | 0.0% | – | 0.0%
CCCCCCCCCCCCOC(=O)CCN(CCCCO)CCC(=O)OCCCCCCCCCCCC [LD28] | – | – | – | – | – | 1.7% | – | 8.5% | – | – | – | –
CCCCCCCCCCOC(=O)CCN(CCC(=O)OCCCCCCCCCC)C(CC)(CO)CO [LB34] | – | 0.1% | – | 0.1% | – | 0.2% | – | 0.4% | – | 0.1% | – | 0.1%
CCCCCCCCCCCCOC(=O)CCN(CCCN(CC)CC)CCC(=O)OCCCCCCCCCCCC [LD81] | – | 0.1% | – | 0.1% | – | 15.2% | – | 7.6% | – | 5.4% | – | 2.3%
CCCCCCCCCCCCCCOC(=O)CC[N+](C)(CCC(=O)OCCCCCCCCCCCCCC)CCC1CCC[N+]1(C)C.[I-].[I-] (centres unmarked) [QF77] | – | 0.4% | – | 0.4% | – | 0.7% | – | 1.3% | – | 2.7% | – | 9.9%
